Experimental data: ChEMBL document CHEMBL4393671, “Design of a Cyclin G Associated Kinase (GAK)/Epidermal Growth Factor Receptor (EGFR) Inhibitor Set to Interrogate the Relationship of EGFR and GAK in Chordoma” (J Med Chem, 2019)
pIC50, pKd: −log10 of the molar value. Active and inactive are the calls of the source. The rule behind the calls is not given here.

Tests used:
cells [1] = assay type: functional, cell-based; conditions: Homo sapiens, 72 h
Description: Antiproliferative activity against human UMCHOR1 cells measured after 72 hrs by alamar blue assay

[2] = molecular target: T1, Epidermal growth factor receptor (Homo sapiens, UniProt P00533); assay: Inhibition of EGFR in human UCH1 cells assessed as reduction in EGF-induced EGFR phosphorylation at Y1068 residue at 1 uM preincubated for 4 hrs followed by EGF--stimulation and measured after 15 mins by Western blot analysis relative to control; assay type: cell-based
T1 sequence (P00533 whole entry): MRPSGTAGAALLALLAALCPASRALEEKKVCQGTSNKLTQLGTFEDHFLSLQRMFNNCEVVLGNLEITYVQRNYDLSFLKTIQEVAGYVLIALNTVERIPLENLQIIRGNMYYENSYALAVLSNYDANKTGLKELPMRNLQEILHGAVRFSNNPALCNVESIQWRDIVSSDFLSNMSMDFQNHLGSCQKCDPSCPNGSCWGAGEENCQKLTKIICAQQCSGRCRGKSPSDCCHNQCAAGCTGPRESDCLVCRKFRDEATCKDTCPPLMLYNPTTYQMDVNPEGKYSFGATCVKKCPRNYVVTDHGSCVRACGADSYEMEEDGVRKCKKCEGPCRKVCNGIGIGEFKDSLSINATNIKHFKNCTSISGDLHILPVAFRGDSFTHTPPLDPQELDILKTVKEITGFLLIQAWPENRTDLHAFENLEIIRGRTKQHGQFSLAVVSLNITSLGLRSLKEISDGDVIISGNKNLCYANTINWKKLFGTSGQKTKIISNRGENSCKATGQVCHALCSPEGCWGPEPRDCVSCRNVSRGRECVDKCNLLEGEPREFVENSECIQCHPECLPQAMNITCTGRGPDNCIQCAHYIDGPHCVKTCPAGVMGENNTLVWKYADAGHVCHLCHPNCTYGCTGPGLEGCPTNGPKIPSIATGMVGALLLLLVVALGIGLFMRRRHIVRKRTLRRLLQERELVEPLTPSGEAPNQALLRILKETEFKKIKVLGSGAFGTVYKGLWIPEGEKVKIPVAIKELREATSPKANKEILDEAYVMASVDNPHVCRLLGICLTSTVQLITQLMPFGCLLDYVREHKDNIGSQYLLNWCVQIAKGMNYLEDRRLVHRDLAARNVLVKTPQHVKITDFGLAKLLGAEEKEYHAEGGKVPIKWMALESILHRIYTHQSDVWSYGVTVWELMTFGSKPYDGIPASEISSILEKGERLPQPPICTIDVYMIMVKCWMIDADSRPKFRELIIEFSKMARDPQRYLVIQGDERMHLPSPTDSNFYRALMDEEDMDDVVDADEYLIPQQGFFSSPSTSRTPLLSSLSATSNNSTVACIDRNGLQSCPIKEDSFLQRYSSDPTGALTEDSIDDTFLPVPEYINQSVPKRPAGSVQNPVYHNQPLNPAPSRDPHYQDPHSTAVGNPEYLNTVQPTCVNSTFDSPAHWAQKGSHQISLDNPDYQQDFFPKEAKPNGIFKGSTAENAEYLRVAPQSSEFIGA

[3] = molecular target: T2, Serine/threonine-protein kinase Nek1 (Homo sapiens) (UniProt Q96PY6); assay: Binding affinity to NEK1 in human SUM159 cell lysates by multiplexed inhibitor bead profiling-based LC-MS/MS analysis; assay type: subcellular; conditions: Lysate
T2 sequence (whole entry): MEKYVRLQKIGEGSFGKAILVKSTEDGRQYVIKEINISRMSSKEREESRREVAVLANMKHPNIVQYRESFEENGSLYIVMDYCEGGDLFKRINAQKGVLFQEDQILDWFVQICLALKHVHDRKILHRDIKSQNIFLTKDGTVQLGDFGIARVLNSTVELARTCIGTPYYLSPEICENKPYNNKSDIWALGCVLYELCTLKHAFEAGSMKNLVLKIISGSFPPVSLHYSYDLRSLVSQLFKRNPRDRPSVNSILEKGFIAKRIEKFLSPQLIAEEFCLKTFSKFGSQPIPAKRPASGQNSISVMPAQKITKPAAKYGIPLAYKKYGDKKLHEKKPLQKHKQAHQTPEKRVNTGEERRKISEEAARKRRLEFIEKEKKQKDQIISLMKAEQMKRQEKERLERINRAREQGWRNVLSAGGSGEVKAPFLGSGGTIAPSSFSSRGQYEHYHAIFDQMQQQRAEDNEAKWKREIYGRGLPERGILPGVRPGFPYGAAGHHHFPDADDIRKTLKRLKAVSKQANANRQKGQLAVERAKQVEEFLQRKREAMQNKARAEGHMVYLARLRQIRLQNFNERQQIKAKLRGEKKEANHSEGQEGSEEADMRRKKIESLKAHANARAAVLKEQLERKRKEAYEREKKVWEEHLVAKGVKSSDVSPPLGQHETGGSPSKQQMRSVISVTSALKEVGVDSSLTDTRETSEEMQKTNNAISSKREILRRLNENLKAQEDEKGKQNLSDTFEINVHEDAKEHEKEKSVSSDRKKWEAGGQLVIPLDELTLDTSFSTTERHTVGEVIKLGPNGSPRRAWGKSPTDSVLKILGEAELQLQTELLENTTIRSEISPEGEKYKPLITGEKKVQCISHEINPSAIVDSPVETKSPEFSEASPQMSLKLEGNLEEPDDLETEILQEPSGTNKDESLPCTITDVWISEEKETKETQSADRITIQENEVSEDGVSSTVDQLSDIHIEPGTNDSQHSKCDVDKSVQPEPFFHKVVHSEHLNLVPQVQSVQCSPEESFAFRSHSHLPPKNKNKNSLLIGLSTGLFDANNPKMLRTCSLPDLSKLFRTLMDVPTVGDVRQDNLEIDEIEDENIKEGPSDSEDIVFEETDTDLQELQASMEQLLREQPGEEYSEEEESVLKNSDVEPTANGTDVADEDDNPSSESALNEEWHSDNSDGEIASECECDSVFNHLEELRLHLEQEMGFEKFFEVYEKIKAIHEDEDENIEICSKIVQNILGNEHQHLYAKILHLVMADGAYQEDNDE

[4] = molecular target: T1, Epidermal growth factor receptor; assay: Inhibition of EGFR in human UCH2 cells assessed as reduction in EGF-induced EGFR phosphorylation at Y1068 residue at 10 uM preincubated for 4 hrs followed by EGF--stimulation and measured after 15 mins by Western blot analysis relative to control; assay type: cell-based
cells [5] = assay type: functional, cell-based; conditions: Homo sapiens, 72 h; remark: listed apart in the source
Description: Antiproliferative activity against human UCH7 cells measured after 72 hrs by alamar blue assay

cells [6] = assay type: functional, cell-based; conditions: Homo sapiens, 72 h; remark: listed apart in the source
Description: Antiproliferative activity against human UCH14 cells measured after 72 hrs by alamar blue assay

cells [7] = assay type: functional, cell-based; conditions: Homo sapiens, UCH1, 72 h
Description: Antiproliferative activity against human UCH1 cells measured after 72 hrs by alamar blue assay

[8] = molecular target: T1, Epidermal growth factor receptor; assay: Inhibition of EGFR in human UCH1 cells assessed as reduction in EGF-induced EGFR phosphorylation at Y1068 residue at 10 uM preincubated for 4 hrs followed by EGF--stimulation and measured after 15 mins by Western blot analysis relative to control; assay type: cell-based
[9] = Effect on total EGFR expression in human UCH2 cells at 1 to 10 uM measured after 4 hrs by Western blot analysis; assay type: ADME, cell-based
cells [10] = assay type: functional, cell-based; conditions: Homo sapiens, 72 h; remark: listed apart in the source
Description: Antiproliferative activity against human CH22 cells measured after 72 hrs by alamar blue assay

cells [11] = assay type: functional, cell-based; conditions: Homo sapiens, 72 h; remark: listed apart in the source
Description: Antiproliferative activity against human UCH12 cells measured after 72 hrs by alamar blue assay

[12] = molecular target: T1, Epidermal growth factor receptor; assay: Inhibition of EGFR in human UCH2 cells assessed as reduction in EGF-induced EGFR phosphorylation at Y1068 residue at 1 uM preincubated for 4 hrs followed by EGF--stimulation and measured after 15 mins by Western blot analysis relative to control; assay type: cell-based
[13] = molecular target: T3, STE20-related kinase adapter protein alpha (Homo sapiens) (UniProt Q7RTN6); assay: Binding affinity to LYK5 in human SUM159 cell lysates by multiplexed inhibitor bead profiling-based LC-MS/MS analysis; assay type: subcellular; conditions: Lysate
T3 sequence (whole entry): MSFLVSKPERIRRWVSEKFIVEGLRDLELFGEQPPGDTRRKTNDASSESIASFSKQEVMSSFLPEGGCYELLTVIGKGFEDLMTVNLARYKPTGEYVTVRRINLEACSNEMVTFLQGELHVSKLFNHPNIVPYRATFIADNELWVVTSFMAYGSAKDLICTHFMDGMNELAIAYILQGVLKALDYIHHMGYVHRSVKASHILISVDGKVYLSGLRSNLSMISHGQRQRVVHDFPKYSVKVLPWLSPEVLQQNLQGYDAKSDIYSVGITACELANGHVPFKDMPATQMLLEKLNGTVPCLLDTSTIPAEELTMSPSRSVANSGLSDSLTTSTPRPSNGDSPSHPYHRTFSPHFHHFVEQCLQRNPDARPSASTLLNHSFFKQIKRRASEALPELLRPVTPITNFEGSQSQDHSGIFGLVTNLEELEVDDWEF

[14] = molecular target: T1, Epidermal growth factor receptor
Description: Binding affinity to wild-type human partial length EGFR (R669 to V1011 residues) expressed in bacterial expression system by Kinomescan method

[15] = Effect on total EGFR expression in human UCH1 cells at 1 to 10 uM measured after 4 hrs by Western blot analysis; assay type: ADME, cell-based
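For pKd in this document: KINOMEscan competition binding with recombinant partial wild-type human EGFR (residues R669–V1011) produced in bacteria.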

- pIC50 (cells [1]): 4.85
- inhibition [2]: 0%
- Activity [3]: Active
- inhibition [4]: 71.3%
- pIC50 (cells [5]): 4.70
- pIC50 (cells [6]): 4.89
- pIC50 (cells [7]): 5.68
- inhibition [8]: 60.8%
- pIC50 (cells [10]): 4.89
- pIC50 (cells [11]): 4.52
- inhibition [12]: 0%
- Activity [13]: Active
- pKd [14]: 9.57
SMILES: C#Cc1cccc(Nc2ccnc3cc(OC)c(OC)cc23)c1
- Activity [9]: Non-Toxic
- Activity [15]: Non-Toxic
